Reference: PMC6274005, “Interaction of Di-2-pyridylketone 2-pyridine Carboxylic Acid Hydrazone and Its Copper Complex with BSA: Effect on Antitumor Activity as Revealed by Spectroscopic Studies” (Molecules, 2016)

Tests used:
[1] = tested on: HepG2 cells; parameters: method as in PMID 26398524; conditions: cited from earlier work
[2] = molecular target: T1, BSA (Bos taurus, UniProt P02769); test: Fluorescence resonance energy transfer (FRET) between BSA and bound agent; type: binding, bovine; conditions: for r (distance from bound agent to Trp-213 residue of BSA): FRET; for R0 (critical distance at 50% energy transfer efficiency): K^2 = 2/3, N = 1.336, ф = 0.15
Description: Further, the distance R between the two Trp residues in BSA and the bound DPPCAH (DPPCAH-Cu) was determined using the fluorescence resonance energy transfer (FRET) method. Generally, FRET occurs whenever the emission spectrum of a fluorophore (donor) overlaps with the absorption spectrum of the bound molecule (acceptor). The efficiency of energy transfer could be used to evaluate the distance between the drug and the Trp213 residue in BSA. The relationship between the distance and efficiency of FRET is described by the following equation: (4) E=1−F/F0=R06/R06+r^6 where, r is the distance between acceptor and donor and, R0 is the critical distance when the energy transfer efficiency is 50%. The value of R0 is calculated using the following equation: (5) R=8.8×10^−25 K^2 N^−4ΦJ where, K^2 is the relative orientation of the transition dipoles of donor and acceptor (K^2 = 2/3 for a random orientation); N is the average refractive index of the medium (N = 1.336); ф is the fluorescence quantum yield of donor (ф = 0.15); J is a factor describing the spectral overlap between the emission spectrum of donor and the absorption spectrum of acceptor. J is calculated using the following equation: (6) J=∑F(λ)ε(λ)λ^4Δλ/∑F(λ)Δλ where, λ is wavelength. To calculate the distance (r), E and J value are required. These values are derived from the fluorescence data and overlapped area between the emission spectrum of BSA and the absorption spectrum of DPPCAH (or DPPCAH-Cu) as shown in Figure 6a (or Figure 6b) after normalization. The experimental value for the efficiency to be used in Equation (4) was estimated by measuring the fluorescence at equal protein-ligand concentration as described in [27].
Absorbance spectrum of DPPCAH and DPPCAH-Cu were recorded on a UV-2450 spectrophotometer (Shimadzu (Suzhou) Co. Ltd., Suzhou, China) within the UV region in the range of 300 to 450 nm. Final concentrations of the agents concentration used for measurements were 10 μM (in Tris-HCl buffer, pH 7.2).
(§1) For the fluorescence spectra, the excitation wavelength was set at 280 nm and the emission spectra were recorded in the range of 300 to 450 nm. Both excitation and emission slit widths were adjusted to 5 nm. In this assay, 4.0 mL of BSA solution at a fixed concentration of 10 × 10^−5 M was accurately added into the quartz cell (1 cm path length), and was manually titrated by successive additions of 10 mM DPPCAH (or DPPCAH-Cu) at intervals of 5 min. Fluorescence emission spectra were then measured on a RF-5301 Spectrofluorophotometer (Shimadzu Scientific Instruments, Kyoto, Japan) at three different temperatures (288, 303, and 310 K). In order to calculate the peak area, the integration of spectra was done in the range of 300 to 450 nm. Synchronous fluorescence spectra were recorded by simultaneously scanning the excitation and emission monochromators, in which a constant wavelength interval was maintained between them. The wavelength interval (Δλ = λem − λex) was fixed individually at 60 nm, at which characteristic information of pertaining to Trp residues was obtained.

[3] = molecular target: T1, BSA; test: Fluorescence quenching of BSA (Stern-Volmer, binding constants, van't Hoff thermodynamics); parameters: species or system bovine; conditions: for number of binding sites n per BSA / Ksv (Stern-Volmer dynamic quenching constant) / ΔH of binding to BSA / ΔS of binding to BSA / ΔG of binding to BSA: pH 7.2; for Kq (quenching rate constant of biomolecule): calculated from Ksv with τ0 = 10^−8 s; for shift of BSA fluorescence emission upon addition of the agent: fluorescence titration, CBSA = 1.0 × 10^−5 M, pH 7.2, 288 K; for ΔH of binding to BSA / ΔS of binding to BSA: van't Hoff plot; for ΔG of binding to BSA: ΔG = ΔH − TΔS
Description: To investigate the possible mechanism responsible for fluorescence quenching, Stern–Volmer plots were used to interpret the spectral data. The procedure of fluorescence quenching was first assumed a dynamic quenching process. The dynamic quenching constant Ksv and the apparent biomolecular quenching rate constant Kq were calculated using the Stern–Volmer equation: (1) F0/F=1+Ksv[Q]=1+Kqτ0[Q] where, F0 and F are the steady-state fluorescence intensities in the absence and presence of a quencher, respectively; [Q] is the concentration of the quencher; Ksv is the Stern–Volmer dynamic quenching rate constant; τ0 is the fluorescence lifetime of the protein without the quencher, the average life of a fluorescence molecule is 10^−8 s; and Kq is the quenching rate constant of biomolecule. […] To distinguish the quenching model, additional experiments were conducted at different temperatures, as dynamic and static quenching have different temperature dependencies. With an increase in temperature, the Ksv values decrease for static quenching, and increase for dynamic quenching. […] Kq values calculated for DPPCAH and DPPCAH-Cu ranged from 5 × 10^12~7 × 10^12, and >2 × 10^10 L·mol^−1·s^−1, respectively, which further supported the static quenching model.
For the static quenching model, important binding parameters including association constant (Ka) and number of binding sites (n) were calculated from the plots using the equation: (2) log(F0−F/F0)=log Ka+nlog[Q] where, Ka is the binding constant, and n is the number of binding sites per BSA. Ka and n were obtained from the intercept and slope of the curve. […] The number of binding sites n was 1.0418 for DPPCAH and 1.1053 for DPPCAH-Cu, or approximately 1. Thus, the association of one molecule of quencher with one molecule of protein was confirmed. […] Similar results were reported from studies analyzing interaction of eupatorin with BSA [17].
The interaction of small molecules with biomacromolecule involves hydrogen bonds, electrostatic interactions, van der Waals, and hydrophobic forces. In the present study, the nature of the interaction involved in binding was determined based on thermodynamic parameters, namely, ΔH > 0 and ΔS > 0 would imply a hydrophobic interaction, ΔH < 0 and ΔS < 0 hint imply hydrogen bonding and van der Waals interactions, and ΔH< 0 and ΔS > 0 imply electrostatic force interactions. The thermodynamic parameters were obtained using the van’t Hoff Equation (3): (3) lnK=−ΔH/RT+ΔS/R where, K is the binding constant; T is the absolute temperature; and R is the universal gas constant. ΔH and ΔS were obtained from the slope and intercept of the linear van’t Hoff plot (shown in Figure 5). The free energy change (ΔG) was estimated using the following formula: ΔG = ΔH − TΔS
as §1, with “In this assay, 4.0 mL of BSA solution at a fixed concentration of 10 × 10^−5 M was accurately added into the quartz cell (1 cm path length), and was manually titrated by successive additions of 10 mM DPPCAH (or DPPCAH-Cu) at intervals of 5 min.” left out

[4] = molecular target: T1, BSA; test: Circular dichroism spectra of BSA, secondary structure simulated with K2D2; parameters: species or system bovine; conditions: molar ratio drug/protein = 2; CBSA = 15 μM; K2D2 simulation of CD data
Description: A direct calculation of secondary structures using experimental data was employed, but owing to the larger errors, the K2D2 software was used to simulate the experimental data of CD in the present study. The simulated curves are represented in the Supplementary Materials (Figure S1). In the absence of DPPCAH, the α-helix and β-sheet of BSA were 52% and 8.29% respectively.
BSA CD spectra in the range of 190–250 nm were recorded on a Chirascan (Applied Photophysics Ltd., Surrey, UK) with a 1.0 cm quartz cell in nitrogen atmosphere. BSA CD measurements in the presence and absence of DPPCAH (or DPPCAH-Cu) were performed with a scan rate of 50 nm/min. The A stock solution of 1.5 × 10^−5 M BSA was prepared in PBS. A 10 mM stock solution of DPPCAH was prepared in DMSO and the stock solution was diluted to 1.5 mM with water for measurements. Similarly, a solution of DPPCAH-Cu was prepared by mixing the DPPCAH solution with higher concentration of CuCl2 in water. The BSA concentration was held constant, while the DPPCAH concentration was varied (0, 1.5, 3.0 × 10^−5 M). The final concentration of DMSO in the measurements was less 0.5%. The buffer solution was chosen as the blank, and was manually subtracted from each spectrum during scanning. Each sample was scanned three times and the average was recorded for the CD spectrum.

[5] = molecular target: T1, BSA; test: Synchronous fluorescence spectra of BSA (Δλ = 60 nm); type: binding, bovine; conditions: CBSA = 10.0 μM, 288 K
Description: The bathochromic (or […]) shift noticed during fluorescence titration of BSA with the reagents, implied potent changes in the environment of Trp residues. To confirm these environmental changes, synchronous fluorescence spectra were recorded, because this technique yields information pertaining to the change in the polarity of the microregion near fluorophore molecules. By using different D-value (Δλ) between the excitation and emission wavelength, fluorescence contributors from different aromatic amino acids in the protein can be identified. When Δλ is stabilized at 60 nm, synchronous fluorescence spectroscopy provides the characteristic information specific to Trp residues. […] Although DPPCAH and DPPCAH-Cu could bind BSA, they induced different effects in BSA.
as §1, with “In this assay, 4.0 mL of BSA solution at a fixed concentration of 10 × 10^−5 M was accurately added into the quartz cell (1 cm path length), and was manually titrated by successive additions of 10 mM DPPCAH (or DPPCAH-Cu) at intervals of 5 min.” left out

[6] = tested on: HepG2 cells; test: MTT cytotoxicity assay in the absence or presence of BSA; type: cell-based; conditions: agent-BSA 1:1, medium without FCS, 8 h incubation
Description: It has been reported that HSA could enhance the anti-proliferative activity of Dp44mT [13]. Thus, we examined the effect of BSA on both DPPCAH- and DPPCAH-Cu-mediated inhibition of HepG2 cells in which BSA was the main protein source in the cell culture.
Figure 1 Inhibition of proliferation of HepG2 cells by DPPCAH and DPPCAH-Cu in the absence or presence of BSA. Dpp = DPPCAH; * p < 0.01 (t-test).
A stock solution of DPPCAH (10 mM) was prepared in 80% DMSO, and was diluted to the required concentration with culture medium when used. The DPPCAH-Cu was prepared by mixing highly concentrated copper chloride with DPPCAH based on 1:1 molar ratio, and diluted to the required concentration with water. BSA was dissolved in PBS and was sterilized by filter sterilization method. HepG2 cells were cultured in RPMI-1640 medium supplemented with 10% fetal calf serum (FCS) and antibiotics. The cells collected in the exponential-phase (5 × 10^3 /mL) were seeded equivalently into a 96-well plate, followed by 6 h of incubation. […] The plate was read using a microplate reader (MK3; Thermo Fisher Scientific (Shanghai) Co. LTD, Shanghai, China) at 570 nm and the measurement of absorbance represented an estimate of the number of viable cells. Percent growth inhibition was defined as percent absorbance inhibition within appropriate absorbance in each cell line. […]

[7] = 303 K (first value of the printed decrease with increasing temperature)
[8] = 310 K (second value of the printed decrease with increasing temperature)

T1 sequence (P02769 25-607): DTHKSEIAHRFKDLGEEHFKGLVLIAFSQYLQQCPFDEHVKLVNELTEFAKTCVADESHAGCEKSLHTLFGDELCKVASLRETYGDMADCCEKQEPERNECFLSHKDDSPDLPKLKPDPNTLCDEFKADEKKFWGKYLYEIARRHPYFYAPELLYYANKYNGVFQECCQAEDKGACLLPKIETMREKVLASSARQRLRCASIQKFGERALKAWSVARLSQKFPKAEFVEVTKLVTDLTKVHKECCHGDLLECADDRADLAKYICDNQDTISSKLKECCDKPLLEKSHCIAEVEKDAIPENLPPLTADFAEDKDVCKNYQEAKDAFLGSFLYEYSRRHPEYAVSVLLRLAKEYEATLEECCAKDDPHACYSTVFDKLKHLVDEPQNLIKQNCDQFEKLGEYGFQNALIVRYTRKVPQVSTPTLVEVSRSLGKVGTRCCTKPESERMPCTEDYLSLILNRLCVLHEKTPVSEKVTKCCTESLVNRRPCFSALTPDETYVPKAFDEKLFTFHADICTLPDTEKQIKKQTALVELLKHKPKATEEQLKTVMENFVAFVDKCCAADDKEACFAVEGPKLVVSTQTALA

Row | Compound | r (distance from bound agent to Trp-213 residue of BSA) [2] [nm] | R0 (critical distance at 50% energy transfer efficiency) [2] [nm] | number of binding sites n per BSA ([3]; 288 K, CBSA = 10 μM) | Ksv (Stern-Volmer dynamic quenching constant) [3, 7] | Ksv (Stern-Volmer dynamic quenching constant) [3, 8] | Kq (quenching rate constant of biomolecule) [3] | shift of BSA fluorescence emission upon addition of the agent [3] | ΔH of binding to BSA ([3]; 288 K) [kcal/mol] | ΔS of binding to BSA ([3]; 288 K) [J/mol·K] | ΔG of binding to BSA ([3]; 288 K) [kcal/mol] | decrease of fluorescence intensity of Trp residue [5] [%] | shift of maximum emission wavelength of Trp in synchronous fluorescence [5] | further results
1 | Copper complex of di-2-pyridylketone 2-pyridinecarboxylic acid hydrazone [DPPCAH-Cu] | 2.32 | 2.7 | 1.1053 | 5.47 × 10^4 | 4.9 × 10^4 | > 2e+10 L/mol/s | blue shift | -9.218 | −41.5 | -6.36 | 50 | blue shift | antitumor activity compared with DPPCAH [1]: significantly enhanced the antitumor activity; R0 (critical distance at 50% energy transfer efficiency) ([2]; listed as BSA-DPPCAH-Cu): 2.70 nm; J (spectral overlap of BSA emission and agent absorption) ([2]; calculated from spectra): 1.7e-14 cm^3·L·mol^-1; Ka (association constant with BSA) ([3]; 288 K, CBSA = 10 μM, pH 7.2 (10 mM Tris-HCl)): 6.56 ×10^4; binding energy obtained from fluorescence quenching ([3]; at 288 K, quoted for comparison with docking): -7.1 kcal/mol; decrease in α-helix of BSA [4]: 3.5%; increase in β-sheet of BSA [4]: 1.45%
2 | O=C(NN=C(c1ccccn1)c1ccccn1)c1ccccn1 [DPPCAH, di-2-pyridylketone-2-pyridine carboxylic acid hydrazone] | 2.03 | 2.35 | 1.0418 | 7.0 × 10^4 | 5.08 × 10^4 | 5 × 10^12~7 × 10^12 L·mol^−1·s^−1 | bathochromic red shift | -11.23 | −60.0 | -7.096 | 55 | significant red shift | IC50 ([1]; read-out: IC50, growth inhibition of HepG2 cells): 4.6 ± 0.2 µM; effect of BSA on growth inhibition of HepG2 cells mediated by the agent [6]: attenuated the growth inhibition
